In PubChem BioAssay AID330 (DTP/NCI, 2004):
Several values for one entry are separate records, joined by “and”; a condition that tells them apart may be missing. Equal entries are not always repeated. Inconclusive results and toxic doses are left out. The calls were made as follows: active = survival T/C of 150% or more; inactive = T/C below 125% in these data. Square brackets hold non-standard residues; d marks the D form. Peptide text beside a SMILES is read from it. ξ: configuration not given here. ξPhe(4-N(CH2CH2Cl)2) = NC(Cc1ccc(N(CCCl)CCCl)cc1)C(=O)O

System: P388 leukemia ip, CD2F1 mice, survival T/C
Assay: NCI In Vivo Anticancer Drug Screen. Data for tumor model P388 Leukemia (intraperitoneal) in CD2F1 (CDF1) mice
Conditions: endpoint: median survival time, higher = longer survival
Outline: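 Mice carrying the transplanted tumor received test compound or vehicle. Survival was recorded in each group, and the value is the treated-group measurement divided by that of the vehicle-treated control group.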

[1] = dose: 100.0 mg/kg/injection, schedule: Q04DX003 (ip), vehicle: Klucel (hydroxypropylcellulose) (HPC)
[2] = dose: 200.0 mg/kg/injection, schedule: Q04DX003 (ip), vehicle: Klucel (hydroxypropylcellulose) (HPC)
[3] = dose: 400.0 mg/kg/injection, schedule: Q04DX003 (ip), vehicle: Klucel (hydroxypropylcellulose) (HPC)
[4] = dose: 50.0 mg/kg/injection, schedule: Q01DX009 (ip), vehicle: saline
[5] = dose: 100.0 mg/kg/injection, schedule: Q01DX009 (ip), vehicle: saline
[6] = dose: 200.0 mg/kg/injection, schedule: Q01DX009 (ip), vehicle: saline
[7] = dose: 50.0 mg/kg/injection, schedule: Q01DX005 (ip), vehicle: Klucel (hydroxypropylcellulose) (HPC)
[8] = dose: 100.0 mg/kg/injection, schedule: Q01DX005 (ip), vehicle: Klucel (hydroxypropylcellulose) (HPC)
[9] = dose: 200.0 mg/kg/injection, schedule: Q01DX005 (ip), vehicle: Klucel (hydroxypropylcellulose) (HPC)
[10] = dose: 50.0 mg/kg/injection, schedule: Q01DX005 (ip), vehicle: saline with Tween-80
[11] = dose: 60.0 mg/kg/injection, schedule: Q01DX005 (ip), vehicle: saline with Tween-80
[12] = dose: 120.0 mg/kg/injection, schedule: Q01DX005 (ip), vehicle: saline with Tween-80
[13] = dose: 240.0 mg/kg/injection, schedule: Q01DX005 (ip), vehicle: saline with Tween-80
[14] = dose: 60.0 mg/kg/injection, schedule: Q01DX005 (ip), vehicle: Klucel + Tween-80

Measured: T/C

CC(=O)NC1=CC(=O)c2[nH]c(=O)[nH]c(=O)c2C1=O
inactive: dose: 3.0 mg/kg/injection, schedule: Q01DX005 (ip), vehicle: other 99 % of control | dose: 6.0 mg/kg/injection, schedule: Q01DX005 (ip), vehicle: other 98 % of control | dose: 12.0 mg/kg/injection, schedule: Q01DX005 (ip), vehicle: other 100 % of control

O=C(Nc1ccccc1)Nc1ccccc1C(=O)O
inactive: dose: 50.0 mg/kg/injection, schedule: Q04DX003 (ip), vehicle: Klucel (hydroxypropylcellulose) (HPC) 100 % of control | [1] 107 % of control | [2] 109 % of control | [3] 93 % of control

O=[N+]([O-])c1ccc(/C=C/Oc2ccccc2)o1
inactive: dose: 50.0 mg/kg/injection, schedule: Q01DX009 (ip), vehicle: suspension in saline 111 % of control | dose: 100.0 mg/kg/injection, schedule: Q01DX009 (ip), vehicle: suspension in saline 110 % of control | dose: 200.0 mg/kg/injection, schedule: Q01DX009 (ip), vehicle: suspension in saline 111 % of control

O=CNC(NC=O)NC=O
inactive: dose: 25.0 mg/kg/injection, schedule: Q01DX009 (ip), vehicle: saline 109 % of control | [4] 97 % of control | [5] 105 % of control | [6] 104 % of control

CC1(C)OC2OC3C(CNCCO)OC(c4ccccc4)OC3C2O1 (centres undefined)
inactive: [7] 107 % of control | [8] 108 % of control | [9] 101 % of control

COc1ccc(C(C2C(=O)CC(C)(C)CC2=O)C2C(=O)CC(C)(C)CC2=O)cc1
inactive: [7] 104 % of control | [8] 101 % of control | [9] 106 % of control

ClCCN1c2ccc3ccccc3c2Sc2c1ccc1ccccc21
inactive: [10] 96 % of control | dose: 100.0 mg/kg/injection, schedule: Q01DX005 (ip), vehicle: saline with Tween-80 92 % of control | dose: 200.0 mg/kg/injection, schedule: Q01DX005 (ip), vehicle: saline with Tween-80 97 % of control

Cc1ccc([NH-])c(C(=O)O)c1.Cc1ccc([NH-])c(C(=O)O)c1.[Cu+2]
inactive: dose: 12.5 mg/kg/injection, schedule: Q01DX005 (ip), vehicle: saline with Tween-80 96 % of control | dose: 25.0 mg/kg/injection, schedule: Q01DX005 (ip), vehicle: saline with Tween-80 100 % of control | [10] 94 % of control

COC(=O)C1(CC(=O)c2ccc(C)cc2)NC(=S)NC(=O)C1C#N (centres undefined)
inactive: dose: 60.0 mg/kg/injection, schedule: Q01DX005 (ip), vehicle: saline 100 % of control | dose: 120.0 mg/kg/injection, schedule: Q01DX005 (ip), vehicle: saline 104 % of control | dose: 240.0 mg/kg/injection, schedule: Q01DX005 (ip), vehicle: saline 100 % of control

CCOC(=O)c1ccc(N(CC(O)CN=[N+]=[N-])S(=O)(=O)c2ccc(C)cc2)cc1 (centres undefined)
inactive: [11] 112 % of control | [12] 102 % of control | [13] 96 % of control

NC(=O)c1ncn(C2OC(CO)C(O)C2O)c1O (centres undefined)
inactive: dose: 12.5 mg/kg/injection, schedule: Q01DX009 (ip), vehicle: Klucel (hydroxypropylcellulose) (HPC) 107 % of control | dose: 25.0 mg/kg/injection, schedule: Q01DX009 (ip), vehicle: Klucel (hydroxypropylcellulose) (HPC) 113 % of control | dose: 50.0 mg/kg/injection, schedule: Q01DX009 (ip), vehicle: Klucel (hydroxypropylcellulose) (HPC) 115 % of control | dose: 100.0 mg/kg/injection, schedule: Q01DX009 (ip), vehicle: Klucel (hydroxypropylcellulose) (HPC) 113 % of control | dose: 200.0 mg/kg/injection, schedule: Q01DX009 (ip), vehicle: Klucel (hydroxypropylcellulose) (HPC) 96 % of control

[O-][n+]1c(-c2ccccc2)c(Cl)c(-c2ccccc2)n1O
inactive: dose: 1.5 mg/kg/injection, schedule: Q01DX005 (ip), vehicle: Klucel + Tween-80 99 % of control | dose: 3.0 mg/kg/injection, schedule: Q01DX005 (ip), vehicle: Klucel + Tween-80 100 % of control | dose: 6.0 mg/kg/injection, schedule: Q01DX005 (ip), vehicle: Klucel + Tween-80 96 % of control | [14] 98 % of control

COC(=O)c1nc(=S)[nH]c(C(=O)OC)c1C(=O)c1ccccc1
inactive: [14] 101 % of control | dose: 120.0 mg/kg/injection, schedule: Q01DX005 (ip), vehicle: Klucel + Tween-80 93 % of control | dose: 240.0 mg/kg/injection, schedule: Q01DX005 (ip), vehicle: Klucel + Tween-80 92 % of control

O=[N+]([O-])c1cnccc1Nc1ccncc1
inactive: dose: 100.0 mg/kg/injection, schedule: Q01DX001 (ip), vehicle: saline with Tween-80 100 % of control | dose: 200.0 mg/kg/injection, schedule: Q01DX001 (ip), vehicle: saline with Tween-80 100 % of control

CCC(=N\NC(=S)NCCN(CC)CC)/C(C)=N/NC(=S)NCCN(CC)CC
inactive: dose: 1.56 mg/kg/injection, schedule: Q01DX009 (ip), vehicle: saline 94 % of control | dose: 3.13 mg/kg/injection, schedule: Q01DX009 (ip), vehicle: saline 118 % of control | dose: 6.25 mg/kg/injection, schedule: Q01DX009 (ip), vehicle: saline 106 % of control | dose: 12.5 mg/kg/injection, schedule: Q01DX009 (ip), vehicle: saline 101 % of control

C=C(C)c1nc(N)nc(NCCCC)n1
inactive: [1] 104 % of control | [2] 100 % of control | [3] 96 % of control

ClCc1nnc2n1-c1ccc(Cl)cc1SC2
inactive: [11] 106 % of control | [12] 107 % of control

COc1ccc2cc1-c1cc(ccc1O)CCC(O)CC1CCCC(CC(O)CC2)N1 (centres undefined)
inactive: dose: 15.0 mg/kg/injection, schedule: Q01DX009 (ip), vehicle: Klucel (hydroxypropylcellulose) (HPC) 100 % of control | dose: 30.0 mg/kg/injection, schedule: Q01DX009 (ip), vehicle: Klucel (hydroxypropylcellulose) (HPC) 107 % of control

Nc1nc(N)c(-c2ccc(Cl)cc2)c(COc2ccc(NC(=O)c3ccc(NC(=O)CCl)cc3)cc2)n1
inactive: dose: 25.0 mg/kg/injection, schedule: Q01DX001 (ip), vehicle: saline 104 % of control | dose: 50.0 mg/kg/injection, schedule: Q01DX001 (ip), vehicle: saline 107 % of control | dose: 100.0 mg/kg/injection, schedule: Q01DX001 (ip), vehicle: saline 114 % of control

CP(=O)(c1ccccc1)c1ccccc1OCCCOCCCOc1ccccc1P(C)(=O)c1ccccc1 (centres undefined)
inactive: [7] 99 % of control | [8] 99 % of control | [9] 94 % of control

CC(C)(C)C(=O)CP(=O)(O)O
inactive: [4] 95 % of control and 100 % of control | [5] 104 % of control and 97 % of control | [6] 95 % of control and 101 % of control

COc1cccc(C(Nc2ncccn2)c2cc3c(cc2O)OCO3)c1O (centres undefined)
inactive: [11] 103 % of control | [12] 94 % of control | [13] 94 % of control

NC(CO)C(=O)NC(CCC(=O)O)C(=O)NC(CO)C(=O)NC(CCC(=O)O)C(=O)NC(Cc1ccc(N(CCCl)CCCl)cc1)C(=O)O (centres undefined) (H-SESE[ξPhe(4-N(CH2CH2Cl)2)]-OH; configuration not given here)
inactive: dose: 5.0 mg/kg/injection, schedule: Q04DX003 (ip), vehicle: water 96 % of control | dose: 10.0 mg/kg/injection, schedule: Q04DX003 (ip), vehicle: water 98 % of control | dose: 20.0 mg/kg/injection, schedule: Q04DX003 (ip), vehicle: water 101 % of control | dose: 40.0 mg/kg/injection, schedule: Q04DX003 (ip), vehicle: water 102 % of control and 111 % of control | dose: 80.0 mg/kg/injection, schedule: Q04DX003 (ip), vehicle: water 117 % of control
